Laboratory results: ChEMBL document CHEMBL4477206, “Benzylpiperidine-Linked Diarylthiazoles as Potential Anti-Alzheimer's Agents: Synthesis and Biological Evaluation” (J Med Chem, 2016)

Assays:
in vitro [1] = settings: human
Description: Cytotoxicity against human SH-SY5Y cells assessed as cell viability at 40 uM after 24 hrs by MTT assay

in vitro [2] = settings: human; remark: listed apart in the source
Description: Cytotoxicity against human SH-SY5Y cells assessed as cell viability at 80 uM after 24 hrs by MTT assay

Acetylcholinesterase [3] = biological target: T1, Acetylcholinesterase (Homo sapiens, UniProt P22303); assay: Inhibition of human erythrocyte AChE using ATCI as substrate preincubated for 30 mins followed by substrate addition measured after 30 mins by Ellman assay
T1 sequence (P22303 whole entry): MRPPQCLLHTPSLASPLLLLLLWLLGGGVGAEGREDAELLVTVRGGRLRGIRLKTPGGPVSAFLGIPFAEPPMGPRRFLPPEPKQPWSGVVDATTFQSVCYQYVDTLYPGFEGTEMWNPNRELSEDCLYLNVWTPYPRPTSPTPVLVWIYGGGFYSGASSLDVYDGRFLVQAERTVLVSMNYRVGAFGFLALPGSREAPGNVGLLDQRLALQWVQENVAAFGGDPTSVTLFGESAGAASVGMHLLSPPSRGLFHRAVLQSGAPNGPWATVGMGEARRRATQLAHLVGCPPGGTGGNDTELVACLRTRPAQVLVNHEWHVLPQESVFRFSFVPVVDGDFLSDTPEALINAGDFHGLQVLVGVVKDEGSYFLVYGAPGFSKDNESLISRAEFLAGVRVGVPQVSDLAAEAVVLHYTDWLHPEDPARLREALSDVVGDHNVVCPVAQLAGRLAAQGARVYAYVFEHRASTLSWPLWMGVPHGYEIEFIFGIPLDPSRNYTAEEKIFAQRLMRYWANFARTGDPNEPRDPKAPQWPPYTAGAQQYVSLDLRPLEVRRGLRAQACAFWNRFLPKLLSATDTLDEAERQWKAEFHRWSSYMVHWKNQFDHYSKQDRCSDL

Cholinesterase = Cholinesterase (Equus caballus, UniProt P81908); assay: Inhibition of equine serum BuChE using BTCI as substrate preincubated for 30 mins followed by substrate addition measured after 30 mins by Ellman assay
Chain of Cholinesterase (P81908 whole entry): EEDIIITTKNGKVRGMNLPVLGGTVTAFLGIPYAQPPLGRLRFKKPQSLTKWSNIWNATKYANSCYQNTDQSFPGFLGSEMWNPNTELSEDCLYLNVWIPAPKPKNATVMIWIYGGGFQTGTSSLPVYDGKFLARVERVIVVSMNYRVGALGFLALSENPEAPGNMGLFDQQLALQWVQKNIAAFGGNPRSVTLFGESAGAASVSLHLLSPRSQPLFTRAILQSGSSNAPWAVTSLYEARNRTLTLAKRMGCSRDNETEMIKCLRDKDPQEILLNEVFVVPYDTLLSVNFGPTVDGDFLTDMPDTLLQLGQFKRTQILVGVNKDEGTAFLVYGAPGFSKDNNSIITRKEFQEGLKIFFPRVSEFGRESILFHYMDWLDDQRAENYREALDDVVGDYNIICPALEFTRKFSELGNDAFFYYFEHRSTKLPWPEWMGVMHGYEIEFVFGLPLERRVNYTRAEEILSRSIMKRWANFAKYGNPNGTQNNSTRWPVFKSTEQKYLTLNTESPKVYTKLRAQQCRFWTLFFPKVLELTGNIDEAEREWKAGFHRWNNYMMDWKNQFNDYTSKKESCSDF

Acetylcholinesterase [4] = biological target: T1, Acetylcholinesterase; settings: at 10 µM
Description: Inhibition of human erythrocyte AChE-induced Abeta (1 to 42) aggregation at 10 uM incubated for 24 hrs by thioflavin-T fluorescence assay

[5] = Permeability of the compound at 100 ug/ml incubated for 120 mins by PAMPA; format: ADME; settings: read-out: Peff

Row | SMILES | viability at 24 h, 40 µM (in vitro [1]; sh-sy5y) | viability at 24 h, 80 µM (in vitro [2]; sh-sy5y) | IC50 (Acetylcholinesterase [3]) | IC50 (Cholinesterase) | inhibition (Acetylcholinesterase [4]) | viability at 24 h, 40 µM (in vitro [1]; SH-SY5Y cells) | Papp at 2 h, 100 ug/ml [5] | viability at 24 h, 80 µM (in vitro [2]; SH-SY5Y cells)
1 | COc1cc2c(cc1OC)C(=O)C(CC1CCN(Cc3ccccc3)CC1)C2 (configuration not stated) [DONEPEZIL] | 96.9% | 92.3% |  |  |  |  |  | 
2 | Cc1ccc(-c2nc(NC(=O)C3CCN(Cc4c(F)cccc4Cl)CC3)sc2-c2ccc(C)cc2)cc1 |  |  | 2880 nM | 2770 nM |  |  |  | 
3 | COc1ccc(-c2nc(NCC3CCN(Cc4ccccc4C(F)(F)F)CC3)sc2-c2ccc(OC)cc2)cc1 |  |  | 690 nM | 8010 nM | 20.6% | 94.2% | 8.4 ×10⁻⁶ cm/s | 90.1%
4 | Cc1ccc(-c2nc(NC(=O)C3CCN(Cc4cc(F)cc(F)c4)CC3)sc2-c2ccc(C)cc2)cc1 |  |  | 2500 nM | 3510 nM |  |  |  | 
5 | COc1ccc(-c2nc(NCC3CCN(Cc4c(F)cccc4Cl)CC3)sc2-c2ccc(OC)cc2)cc1 |  |  | 360 nM | 2150 nM | 27.2% | 94.2% | 12.2 ×10⁻⁶ cm/s | 87.1%
6 | COc1ccc(-c2nc(NCC3CCN(Cc4ccccc4C)CC3)sc2-c2ccc(OC)cc2)cc1 |  |  | 590 nM | 2210 nM | 25.6% | 91.6% | 12.3 ×10⁻⁶ cm/s | 87.2%
7 | Fc1cc(F)cc(CN2CCC(CNc3nc(-c4ccc(Cl)cc4)c(-c4ccc(Cl)cc4)s3)CC2)c1 |  |  | 630 nM | 820 nM | 19.4% | 92.4% | 12.5 ×10⁻⁶ cm/s | 91.7%
8 | O=C(Nc1nc(-c2ccc(Cl)cc2)c(-c2ccc(Cl)cc2)s1)C1CCN(Cc2ccccc2C(F)(F)F)CC1 |  |  | 2770 nM | 3360 nM |  |  |  | 
9 | O=C(Nc1nc(-c2ccc(Cl)cc2)c(-c2ccc(Cl)cc2)s1)C1CCN(Cc2ccc(F)cc2Cl)CC1 |  |  | 3700 nM | > 10000 nM |  |  |  | 
10 | COc1ccc(-c2nc(NC(=O)C3CCN(Cc4ccc(F)cc4)CC3)sc2-c2ccc(OC)cc2)cc1 |  |  | 1160 nM | 1730 nM |  |  |  | 
11 | Cc1ccc(-c2nc(NC(=O)C3CCN(Cc4cccc(F)c4)CC3)sc2-c2ccc(C)cc2)cc1 |  |  | > 10000 nM | 1970 nM |  |  |  | 
12 | Cc1ccccc1CN1CCC(C(=O)Nc2nc(-c3ccc(Cl)cc3)c(-c3ccc(Cl)cc3)s2)CC1 |  |  | 1100 nM | 1040 nM |  |  |  | 
13 | Fc1ccc(CN2CCC(CNc3nc(-c4ccc(Cl)cc4)c(-c4ccc(Cl)cc4)s3)CC2)c(Cl)c1 |  |  | 520 nM | 740 nM | 15% | 92.7% | 13.2 ×10⁻⁶ cm/s | 88.9%
14 | COc1ccc(-c2nc(NC(=O)C3CCN(Cc4ccc(F)cc4C(F)(F)F)CC3)sc2-c2ccc(OC)cc2)cc1 |  |  | 1230 nM | 1780 nM |  |  |  | 
15 | O=C(Nc1nc(-c2ccc(Cl)cc2)c(-c2ccc(Cl)cc2)s1)C1CCN(Cc2cc(F)cc(F)c2)CC1 |  |  | 640 nM | 3030 nM | 12% | 95.6% | 8.8 ×10⁻⁶ cm/s | 92.8%
16 | COc1ccc(-c2nc(NC3CCN(Cc4ccc(C(F)(F)F)cc4)CC3)sc2-c2ccc(OC)cc2)cc1 |  |  | 750 nM | 1680 nM | 18.9% | 94.5% | 8.6 ×10⁻⁶ cm/s | 90.4%
17 | COc1ccc(-c2nc(NC(=O)C3CCN(Cc4cccc(F)c4)CC3)sc2-c2ccc(OC)cc2)cc1 |  |  | 570 nM | 1540 nM | 21.2% | 94% | 12.5 ×10⁻⁶ cm/s | 90.3%
18 | Cc1ccc(-c2nc(NCC3CCN(Cc4ccc(F)cc4)CC3)sc2-c2ccc(C)cc2)cc1 |  |  | 370 nM | 1950 nM | 25.8% | 91.8% | 10.1 ×10⁻⁶ cm/s | 89.7%
19 | COc1ccc(CN2CCC(Nc3nc(-c4ccc(Cl)cc4)c(-c4ccc(Cl)cc4)s3)CC2)cc1 |  |  | 1120 nM | 1570 nM |  |  |  | 
20 | Cc1ccc(-c2nc(NC(=O)C3CCN(Cc4ccccc4C)CC3)sc2-c2ccc(C)cc2)cc1 |  |  | > 10000 nM | 1500 nM |  |  |  | 
21 | Fc1ccc(CN2CCC(CNc3nc(-c4ccc(Cl)cc4)c(-c4ccc(Cl)cc4)s3)CC2)c(C(F)(F)F)c1 |  |  | 1240 nM | 3300 nM |  |  |  | 
22 | COc1ccc(-c2nc(NC(=O)C3CCN(Cc4cc(F)cc(F)c4)CC3)sc2-c2ccc(OC)cc2)cc1 |  |  | 2450 nM | > 10000 nM |  |  |  | 
23 | Fc1ccc(CN2CCC(Nc3nc(-c4ccc(Cl)cc4)c(-c4ccc(Cl)cc4)s3)CC2)c(Cl)c1 |  |  | 370 nM | 1970 nM | 27.5% | 94.2% | 8.4 ×10⁻⁶ cm/s | 92.5%

Row | SMILES | viability at 24 h, 40 µM (in vitro [1]; sh-sy5y) | viability at 24 h, 80 µM (in vitro [2]; sh-sy5y) | IC50 (Acetylcholinesterase [3]) | IC50 (Cholinesterase) | inhibition (Acetylcholinesterase [4]) | viability at 24 h, 40 µM (in vitro [1]; SH-SY5Y cells) | Papp at 2 h, 100 ug/ml [5] | viability at 24 h, 80 µM (in vitro [2]; SH-SY5Y cells)
24 | Cc1ccc(CN2CCC(Nc3nc(-c4ccc(C)cc4)c(-c4ccc(C)cc4)s3)CC2)cc1 |  |  | 1090 nM | 6030 nM |  |  |  | 
25 | Cc1ccc(-c2nc(NC(=O)C3CCN(Cc4ccc([N+](=O)[O-])cc4)CC3)sc2-c2ccc(C)cc2)cc1 |  |  | 2320 nM | > 10000 nM |  |  |  | 
26 | COc1ccc(CN2CCC(Nc3nc(-c4ccc(OC)cc4)c(-c4ccc(OC)cc4)s3)CC2)cc1 |  |  | 770 nM | 2530 nM | 11.4% | 92.1% | 10.3 ×10⁻⁶ cm/s | 89.5%
27 | Cc1ccc(-c2nc(NCC3CCN(Cc4ccccc4C(F)(F)F)CC3)sc2-c2ccc(C)cc2)cc1 |  |  | 400 nM | 2200 nM | 26.4% | 93.5% | 12.8 ×10⁻⁶ cm/s | 91.7%
28 | COc1ccc(-c2nc(NC(=O)C3CCN(Cc4ccccc4C)CC3)sc2-c2ccc(OC)cc2)cc1 |  |  | 1340 nM | 1850 nM |  |  |  | 
29 | COc1ccc(-c2nc(NC(=O)C3CCN(Cc4c(F)cccc4Cl)CC3)sc2-c2ccc(OC)cc2)cc1 |  |  | 410 nM | 1570 nM | 16.6% | 92.9% | 8.2 ×10⁻⁶ cm/s | 91.6%
30 | Cc1ccc(-c2nc(NC(=O)C3CCN(Cc4ccc(C(F)(F)F)cc4)CC3)sc2-c2ccc(C)cc2)cc1 |  |  | > 10000 nM | 2780 nM |  |  |  | 
31 | COc1ccc(-c2nc(NC3CCN(Cc4ccc(C)cc4)CC3)sc2-c2ccc(OC)cc2)cc1 |  |  | 830 nM | 2250 nM | 19.2% | 95.4% | 9.6 ×10⁻⁶ cm/s | 89.5%
32 | COc1ccc(-c2nc(NC(=O)C3CCN(Cc4ccccc4C#N)CC3)sc2-c2ccc(OC)cc2)cc1 |  |  | 2800 nM | 3580 nM |  |  |  | 
33 | Cc1ccccc1CN1CCC(CNc2nc(-c3ccc(Cl)cc3)c(-c3ccc(Cl)cc3)s2)CC1 |  |  | 870 nM | 1430 nM | 23.3% | 95.4% | 8.8 ×10⁻⁶ cm/s | 90.9%
34 | N#Cc1ccc(CN2CCC(Nc3nc(-c4ccc(Cl)cc4)c(-c4ccc(Cl)cc4)s3)CC2)cc1 |  |  | 1020 nM | 1720 nM |  |  |  | 
35 | Cc1ccc(CN2CCC(Nc3nc(-c4ccc(Cl)cc4)c(-c4ccc(Cl)cc4)s3)CC2)cc1 |  |  | 3190 nM | > 10000 nM |  |  |  | 
36 | Cc1ccc(-c2nc(NCC3CCN(Cc4ccccc4C)CC3)sc2-c2ccc(C)cc2)cc1 |  |  | 500 nM | 2510 nM | 16.2% | 91.4% | 10.6 ×10⁻⁶ cm/s | 90.1%
37 | Cc1ccc(-c2nc(NC(=O)C3CCN(Cc4ccccc4C(F)(F)F)CC3)sc2-c2ccc(C)cc2)cc1 |  |  | 7570 nM | 1880 nM |  |  |  | 
38 | O=C(Nc1nc(-c2ccc(Cl)cc2)c(-c2ccc(Cl)cc2)s1)C1CCN(Cc2ccc(OC(F)(F)F)cc2)CC1 |  |  | 1380 nM | 2180 nM |  |  |  | 
39 | Cc1ccc(-c2nc(NC3CCN(Cc4ccccc4)CC3)sc2-c2ccc(C)cc2)cc1 |  |  | 1280 nM | 3590 nM |  |  |  | 
40 | N#Cc1ccccc1CN1CCC(C(=O)Nc2nc(-c3ccc(Cl)cc3)c(-c3ccc(Cl)cc3)s2)CC1 |  |  | 1770 nM | 1590 nM |  |  |  | 
41 | Cc1ccc(-c2nc(NC(=O)C3CCN(Cc4ccc(F)cc4Cl)CC3)sc2-c2ccc(C)cc2)cc1 |  |  | > 10000 nM | 1600 nM |  |  |  | 
42 | Cc1ccc(-c2nc(NC(=O)C3CCN(Cc4ccc(C#N)cc4)CC3)sc2-c2ccc(C)cc2)cc1 |  |  | 1280 nM | 5320 nM |  |  |  | 
43 | O=C(Nc1nc(-c2ccc(Cl)cc2)c(-c2ccc(Cl)cc2)s1)C1CCN(Cc2cccc(F)c2)CC1 |  |  | 650 nM | 720 nM | 18.8% | 93.6% | 15.9 ×10⁻⁶ cm/s | 91.1%
44 | COc1ccc(-c2nc(NC(=O)C3CCN(Cc4ccccc4C(F)(F)F)CC3)sc2-c2ccc(OC)cc2)cc1 |  |  | 680 nM | 1920 nM | 14.5% | 92.4% | 12.3 ×10⁻⁶ cm/s | 93.1%
45 | Clc1ccc(-c2nc(NC3CCN(Cc4ccccc4)CC3)sc2-c2ccc(Cl)cc2)cc1 |  |  | 1380 nM | 3300 nM |  |  |  | 
